Measurements from US10183944B2 (Asana Biosciences, LLC, priority 2011, dated 2019).
Where a name gives a salt, the structure may show the parent alone. Read-outs that look alike come from different tables or passages of the source.

Experiments:
JAK2 = JAK2 (Homo sapiens (Human), UniProt O60674); test: Inhibition of enzymatic JAK2 kinase activity (TR-FRET); type: biochemical
Procedure, shortened: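 Enzyme preincubated with compound 30 min at RT, then Ulight-poly-GT substrate and ATP added for 60 min at RT. EDTA stop, Eu-antiphosphotyrosine antibody; TR-FRET ratio 665/615 nm (ex 340 nm), blank-corrected; % inhibition versus positive control.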

[1] = target: Syk (356-635 amino acids) catalytic domain (Homo sapiens (Human), UniProt P43405); test: Inhibition of enzymatic Syk kinase activity (radiometric); type: biochemical
Procedure, shortened: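 Human Syk (356-635) kinase domain (0.035–7.5 ng/reaction) preincubated with compound 30 minutes at room temperature, then reacted with pG4T substrate, 100 μM ATP (stock) and γ-32P-ATP for 10 minutes at 30° C. Reaction stopped with HCl/ATP, spotted on P81 paper, washed and counted by scintillation. Percent inhibition versus no-compound counts.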

RBL2H3 cells = test: Degranulation assay: β-hexosaminidase release during immune complex mediated degranulation; type: cell-based, rat; conditions: Rattus norvegicus
Procedure, shortened: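 RBL2H3 cells sensitized overnight (or 24 h) with anti-DNP rat IgE, pretreated 15 min with compounds in 0.5% DMSO, then challenged with DNP-BSA for 45–60 min. β-Hexosaminidase in supernatant read fluorometrically (Ex 355/Em 460 nm) with β-NAG substrate, 30 min RT; % release/inhibition calculated.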

[2] = RBL-2H3, 1 μM, Assay Protocol B (96 well format), read-out: Degranulation % inhibition at 1 μM
[3] = RBL-2H3, Assay Protocol B (96 well format), read-out: Degranulation EC50
[4] = RBL-2H3, 1 μM, Assay Protocol A (24 well format), read-out: Degranulation % inhibition at 1 μM

Chain of JAK2 (O60674 808-1132): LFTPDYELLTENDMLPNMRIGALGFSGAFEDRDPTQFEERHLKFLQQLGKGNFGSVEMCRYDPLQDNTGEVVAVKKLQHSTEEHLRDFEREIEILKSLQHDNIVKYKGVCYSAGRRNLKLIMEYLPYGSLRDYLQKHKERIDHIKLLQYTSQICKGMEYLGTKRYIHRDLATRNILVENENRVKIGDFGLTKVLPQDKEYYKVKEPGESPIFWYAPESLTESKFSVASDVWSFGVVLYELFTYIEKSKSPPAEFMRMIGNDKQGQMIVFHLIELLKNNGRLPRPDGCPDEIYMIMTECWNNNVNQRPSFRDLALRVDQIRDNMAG

Compound: O=c1[nH]ncc2nc(N3CCCCCC3)nc(Nc3ccc(CCN4CCN(CCO)CC4)cc3)c12 [Example 211, 2-(azepan-1-yl)-4-((4-(2-(4-(2-hydroxyethyl)piperazin-1-yl)ethyl)phenyl)amino)pyrimido[4,5-d]pyridazin-5(6H)-one]
- IC50 (JAK2; read-out: IC50 JAK): < 50 nM
- IC50 ([1]; read-out: IC50 Syk): < 50 nM
- inhibition at 1 µM (RBL2H3 cells; [2]): 53%
- EC50 (RBL2H3 cells; [3]): 49 nM

Compound: N#CCC1CCN(c2nc(Nc3ccc(N4CCC(CC(=O)O)CC4)nc3)c3c(=O)[nH]ncc3n2)CC1 [Example 116, 2-(1-(5-((2-(4-(cyanomethyl)piperidin-1-yl)-5-oxo-5,6-dihydropyrimido[4,5-d]pyridazin-4-yl)amino)pyridin-2-yl)piperidin-4-yl)acetic acid]
- IC50 (JAK2; read-out: IC50 JAK): < 50 nM
- IC50 ([1]; read-out: IC50 Syk): < 50 nM
- inhibition at 1 µM (RBL2H3 cells; [2]): 65%
- EC50 (RBL2H3 cells; [3]): 273 nM

Compound: O=c1[nH]ncc2nc(N3CCCC3)nc(Nc3ccc(CN4CCNCC4)cc3)c12 [Example 48, 4-((4-(piperazin-1-ylmethyl)phenyl)amino)-2-(pyrrolidin-1-yl)pyrimido[4,5-d]pyridazin-5(6H)-one hydrochloride]
- IC50 (JAK2; read-out: IC50 JAK): < 100 nM
- IC50 ([1]; read-out: IC50 Syk): < 100 nM
- inhibition at 1 µM (RBL2H3 cells; [2]): 100%

Compound: CN1CCN(c2ccc(Nc3nc(N4CCC(CC#N)CC4)nc4cn[nH]c(=O)c34)cc2)CC1 [Example 248, 2-(1-(4-((4-(4-methylpiperazin-1-yl)phenyl)amino)-5-oxo-5,6-dihydropyrimido[4,5-d]pyridazin-2-yl)piperidin-4-yl)acetonitrile]
- IC50 (JAK2; read-out: IC50 JAK): < 10 nM
- IC50 ([1]; read-out: IC50 Syk): < 10 nM
- inhibition at 1 µM (RBL2H3 cells; [2]): 99%
- EC50 (RBL2H3 cells; [3]): 19 nM

Compound: N#CCC1CCN(c2nc(Nc3ccc(N4CCN(CC(O)CO)CC4)cc3)c3c(=O)[nH]ncc3n2)CC1 (stereo not shown) [Example 274, 2-(1-(4-((4-(4-(2,3-dihydroxypropyl)piperazin-1-yl)phenyl)amino)-5-oxo-5,6-dihydropyrimido[4,5-d]pyridazin-2-yl)piperidin-4-yl)acetonitrile]
- IC50 (JAK2; read-out: IC50 JAK): < 10 nM
- IC50 ([1]; read-out: IC50 Syk): < 10 nM
- inhibition at 1 µM (RBL2H3 cells; [2]): 59%
- EC50 (RBL2H3 cells; [3]): 81 nM

Compound: CN(C)CCN1CCN(c2ccc(Nc3nc(N4CCC(CC#N)CC4)nc4cn[nH]c(=O)c34)cc2)CC1 [Example 268, 2-(1-(4-((4-(4-(2-(dimethylamino)ethyl)piperazin-1-yl)phenyl)amino)-5-oxo-5,6-dihydropyrimido[4,5-d]pyridazin-2-yl)piperidin-4-yl)acetonitrile]
- IC50 (JAK2; read-out: IC50 JAK): < 50 nM
- IC50 ([1]; read-out: IC50 Syk): < 10 nM
- inhibition at 1 µM (RBL2H3 cells; [2]): 93%
- EC50 (RBL2H3 cells; [3]): 20 nM

Compound: O=C(OCOP(=O)(O)O)C1CC12CCN(c1ccc(Nc3nc(N4CCCCCC4)nc4cn[nH]c(=O)c34)cc1)CC2 (stereo not shown) [Example 219, (phosphonooxy)methyl 6-(4-((2-(azepan-1-yl)-5-oxo-5,6-dihydropyrimido[4,5-d]pyridazin-4-yl)amino)phenyl)-6-azaspiro[2.5]octane-1-carboxylate]
- IC50 (JAK2): < 10 nM
- IC50 [1]: < 10 nM
- inhibition at 1 µM (RBL2H3 cells; RBL-2H3, read-out: Degranulation % inhibition at 1 μM): 45%
- EC50 (RBL2H3 cells; RBL-2H3, read-out: Degranulation EC50 (nM)): 96 nM

Compound: O=C(O)CC1CCCN(c2ccc(Nc3nc(N4CCCCCC4)nc4cn[nH]c(=O)c34)cc2)C1 (stereo not shown) [Example 233, 2-(1-(4-((2-(azepan-1-yl)-5-oxo-5,6-dihydropyrimido[4,5-d]pyridazin-4-yl)amino)phenyl)piperidin-3-yl)acetic acid]
- IC50 (JAK2; read-out: IC50 JAK): < 10 nM
- IC50 ([1]; read-out: IC50 Syk): < 10 nM
- inhibition at 1 µM (RBL2H3 cells; [2]): 20%
- EC50 (RBL2H3 cells; [3]): 174 nM

Compound: N#CCC1CCN(c2nc(Nc3ccc(N(CCO)CCO)cc3)c3c(=O)[nH]ncc3n2)CC1 [Example 307, 2-(1-(4-((4-(bis(2-hydroxyethyl)amino)phenyl)amino)-5-oxo-5,6-dihydropyrimido[4,5-d]pyridazin-2-yl)piperidin-4-yl)acetonitrile]
- IC50 (JAK2; read-out: IC50 JAK): < 10 nM
- IC50 ([1]; read-out: IC50 Syk): < 10 nM
- inhibition at 1 µM (RBL2H3 cells; [2]): 14%
- EC50 (RBL2H3 cells; [3]): 312 nM

Compound: O=c1[nH]ncc2nc(N3CCCCCC3)nc(Nc3ccc(N4CCN(CCF)CC4)cc3)c12 [Example 275, 2-(azepan-1-yl)-4-((4-(4-(2-fluoroethyl)piperazin-1-yl)phenyl)amino) pyrimido[4,5-d]pyridazin-5(6H)-one]
- IC50 (JAK2; read-out: IC50 JAK): < 10 nM
- IC50 ([1]; read-out: IC50 Syk): < 10 nM
- inhibition at 1 µM (RBL2H3 cells; [2]): 73%
- EC50 (RBL2H3 cells; [3]): 15 nM

Compound: O=C(O)CCC1CCN(c2ccc(Nc3nc(-c4ccccc4)nc4cn[nH]c(=O)c34)cc2)CC1 [Example 132, 3-(1-(4-((5-oxo-2-phenyl-5,6-dihydropyrimido[4,5-d]pyridazin-4-yl)amino)phenyl)piperidin-4-yl)propanoic acid]
- IC50 (JAK2; read-out: IC50 JAK): < 10 nM
- IC50 ([1]; read-out: IC50 Syk): < 50 nM
- inhibition at 1 µM (RBL2H3 cells; [2]): 99%
- EC50 (RBL2H3 cells; [3]): 24 nM

Compound: O=c1[nH]ncc2nc(N3CCCCCC3)nc(Nc3ccc(OCCN4CCC(O)CC4)cc3)c12 [Example 172, 2-(azepan-1-yl)-4-((4-(2-(4-hydroxypiperidin-1-yl)ethoxy)phenyl)amino)pyrimido[4,5-d]pyridazin-5(6H)-one]
- IC50 (JAK2; read-out: IC50 JAK): < 10 nM
- IC50 ([1]; read-out: IC50 Syk): < 50 nM
- inhibition at 1 µM (RBL2H3 cells; [2]): 50%
- EC50 (RBL2H3 cells; [3]): 101 nM

Compound: CN1CCN(C(=O)COc2ccc(Nc3nc(N4CCCCCC4)nc4cn[nH]c(=O)c34)cc2)CC1 [Example 283, 2-(azepan-1-yl)-4-((4-(2-(4-methylpiperazin-1-yl)-2-oxoethoxy)phenyl)amino)pyrimido[4,5-d]pyridazin-5(6H)-one]
- IC50 (JAK2; read-out: IC50 JAK): < 10 nM
- IC50 ([1]; read-out: IC50 Syk): < 10 nM
- inhibition at 1 µM (RBL2H3 cells; [2]): 71%
- EC50 (RBL2H3 cells; [3]): 39 nM

Compound: CCOc1nc(Nc2ccc(CN3CCNCC3)cc2)c2c(=O)[nH]ncc2n1 [Example 50, 2-ethoxy-4-((4-(piperazin-1-ylmethyl)phenyl)amino)pyrimido[4,5-d]pyridazin-5(6H)-one hydrochloride]
- IC50 (JAK2; read-out: IC50 JAK): > 100 nM
- IC50 ([1]; read-out: IC50 Syk): < 10 nM
- inhibition at 1 µM (RBL2H3 cells; [2]): 49%

Compound: N#CCC1CCN(c2nc(Nc3ccc(N4CCC(CO)CC4)cc3)c3c(=O)[nH]ncc3n2)CC1 [Example 216, 2-(1-(4-((4-(4-(hydroxymethyl)piperidin-1-yl)phenyl)amino)-5-oxo-5,6-dihydropyrimido[4,5-d]pyridazin-2-yl)piperidin-4-yl)acetonitrile]
- IC50 (JAK2; read-out: IC50 JAK): < 10 nM
- IC50 ([1]; read-out: IC50 Syk): < 10 nM
- inhibition at 1 µM (RBL2H3 cells; [2]): 92%
- EC50 (RBL2H3 cells; [3]): 21 nM

Compound: O=c1[nH]ncc2nc(N3CCCCCC3)nc(Nc3ccc(N4CCN(CC(O)CO)CC4)cc3)c12 (stereo not shown) [Example 273, 2-(azepan-1-yl)-4-((4-(4-(2,3-dihydroxypropyl)piperazin-1-yl)phenyl)amino)pyrimido[4,5-d]pyridazin-5(6H)-one]
- IC50 (JAK2; read-out: IC50 JAK): < 10 nM
- IC50 ([1]; read-out: IC50 Syk): < 10 nM
- inhibition at 1 µM (RBL2H3 cells; [2]): 91%
- EC50 (RBL2H3 cells; [3]): 21 nM

Compound: O=C(O)CN1CCCN(c2ccc(Nc3nc(N4CCCCC4)nc4cn[nH]c(=O)c34)cc2)CC1 [Example 154, 2-(4-(4-((5-oxo-2-(piperidin-1-yl)-5,6-dihydropyrimido[4,5-d]pyridazin-4-yl)amino)phenyl)-1,4-diazepan-1-yl)acetic acid]
- IC50 (JAK2; read-out: IC50 JAK): < 50 nM
- IC50 ([1]; read-out: IC50 Syk): < 50 nM
- inhibition at 1 µM (RBL2H3 cells; [2]): 23%
- EC50 (RBL2H3 cells; [3]): 2320 nM

Compound: O=C(O)C1CCN(Cc2ccc(Nc3nc(-c4ccccc4)nc4cn[nH]c(=O)c34)cc2)CC1 [Example 35, 1-(4-(5-oxo-2-phenyl-5,6-dihydropyrimido[4,5-d]pyridazin-4-ylamino)benzyl)piperidine-4-carboxylic acid]
- IC50 (JAK2; read-out: IC50 JAK): < 50 nM
- IC50 ([1]; read-out: IC50 Syk): < 50 nM
- inhibition at 1 µM (RBL2H3 cells; [2]): 19%

Compound: NCC(=O)N1CCN(c2ccc(Nc3nc(-c4ccccc4)nc4cn[nH]c(=O)c34)cc2)CC1 [Example 11, 4-(4-(4-(2-aminoacetyl)piperazin-1-yl)phenylamino)-2-phenylpyrimido[4,5-d]pyridazin-5(6H)-one hydrochloride]
- IC50 (JAK2; read-out: IC50 JAK): < 100 nM
- IC50 ([1]; hydrochloride, read-out: IC50 Syk): < 50 nM
- inhibition at 1 µM (RBL2H3 cells; [4]): 100%

Compound: O=c1[nH]ncc2nc(N3CCCCCC3)nc(Nc3ccc(N4CCC(O)CC4)cc3)c12 [Example 186, 2-(azepan-1-yl)-4-((4-(4-hydroxypiperidin-1-yl)phenyl)amino) pyrimido[4,5-d]pyridazin-5(6H)-one]
- IC50 (JAK2; read-out: IC50 JAK): < 100 nM
- IC50 ([1]; read-out: IC50 Syk): < 10 nM
- inhibition at 1 µM (RBL2H3 cells; [2]): 93%
- EC50 (RBL2H3 cells; [3]): 10 nM

Compound: O=c1[nH]ncc2nc(-c3ccccc3)nc(Nc3ccc(N4CCOCC4)cc3)c12 [Example 1, 4-(4-morpholinophenylamino)-2-phenylpyrimido[5,4-d]pyridazin-5(6H)-one]
- IC50 (JAK2; read-out: IC50 JAK): < 50 nM
- IC50 ([1]; read-out: IC50 Syk): < 50 nM
- inhibition at 1 µM (RBL2H3 cells; [4]): 85%
